According to ChEMBL document CHEMBL1130853, “Synthesis and biological properties of new 1 beta-methylcarbapenems” (Bioorg Med Chem Lett, 1998):
In brackets after ≈: the same amount, converted by molar mass.

Assays:
[1] = system: Staphylococcus aureus; test: Antibacterial activity against Staphylococcus aureus SG 511; format: functional
[2] = system: Klebsiella aerogenes; test: Antibacterial activity against Klebsiella aerogenes 1522E; format: functional
[3] = system: Salmonella typhimurium; test: Antibacterial activity against Salmonella Typhimurium; format: functional, Salmonella enterica subsp. enterica serovar Typhimurium; conditions: Salmonella enterica
[4] = system: Enterococcus faecium; test: Antibacterial activity against Streptococcus faecium MD 8b; format: functional
[5] = system: Streptococcus pyogenes; test: Antibacterial activity against Streptococcus pyogenes 77A; format: functional
[6] = Antibacterial activity against Enterobacter cloacae 1321E; format: functional
[7] = system: Escherichia coli; test: microbe, parasite or virus in culture; format: functional
Description: Antibacterial activity against Escherichia coli 1507E

[8] = system: Pseudomonas aeruginosa; test: microbe, parasite or virus in culture; format: functional
Description: Antibacterial activity against Pseudomonas aeruginosa 1771M

[9] = system: Pseudomonas aeruginosa; test: microbe, parasite or virus in culture; format: functional; remark: listed apart in the source
Description: Compound was evaluated for antibacterial activity against Pseudomonas aeruginosa 1592E

[10] = biological target: T1, Dipeptidase 1 (Sus scrofa) (UniProt P22412); test: Compound was evaluated for relative rate of hydrolysis to imipenem by partially purified porcine renal Dehydropeptidase-1; parameters: scale not given: the % may be the effect or the level left
T1 sequence (whole entry): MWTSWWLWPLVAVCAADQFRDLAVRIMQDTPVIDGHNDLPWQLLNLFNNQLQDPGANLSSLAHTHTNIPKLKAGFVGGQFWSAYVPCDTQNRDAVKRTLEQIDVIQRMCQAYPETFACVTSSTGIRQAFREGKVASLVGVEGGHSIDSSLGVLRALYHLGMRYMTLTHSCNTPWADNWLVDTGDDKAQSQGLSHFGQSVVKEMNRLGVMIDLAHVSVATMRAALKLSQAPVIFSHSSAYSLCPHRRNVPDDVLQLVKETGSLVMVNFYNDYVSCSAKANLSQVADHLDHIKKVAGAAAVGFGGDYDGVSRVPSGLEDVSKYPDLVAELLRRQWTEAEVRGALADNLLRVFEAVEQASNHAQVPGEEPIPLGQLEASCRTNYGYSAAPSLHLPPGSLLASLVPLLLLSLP

[11] = system: Pseudomonas aeruginosa; test: Compound was tested for in vivo protective activity against Pseudomonas aeruginosa 1771M at a single subcutaneous administration in mice.; format: functional; conditions: sc, read-out: PD50
[12] = Time taken by the compound to reach maximum concentration.; format: ADME
[13] = system: Escherichia coli; test: Compound was tested for in vivo protective activity against Escherichia coli 078 at a single subcutaneous administration in mice.; format: functional; conditions: sc, read-out: PD50
[14] = system: Streptococcus pyogenes; test: Compound was tested for in vivo protective activity against Streptococcus pyogenes 77A at a single subcutaneous administration in mice.; format: functional; conditions: sc, read-out: PD50

Structure (SMILES) | MIC [1] [µg/mL] | MIC [2] [µg/mL] | MIC [3] [µg/mL] | MIC [4] [µg/mL] | MIC [5] [µg/mL] | MIC [6] [µg/mL] | MIC [7] [µg/mL] | MIC [8] [µg/mL] | MIC [9] [µg/mL] | Stability [10] [%] | ED50 [11] [mg/kg] | Tmax [12] [min] | ED50 [13] [mg/kg] | ED50 [14] [mg/kg]
C[C@@H](O)[C@H]1C(=O)N2C(C(=O)O)=C(S[C@@H]3CN[C@H](C(=O)NCCS(=O)(=O)N4CCCC4)C3)[C@H](C)[C@H]12 | 0.098 (≈ 0.19 µM) | 0.025 (≈ 0.0484 µM) | 0.025 (≈ 0.0484 µM) | 6.25 (≈ 12.1 µM) | 0.004 (≈ 0.00774 µM) | 0.013 (≈ 0.0252 µM) | 0.013 (≈ 0.0252 µM) | 0.391 (≈ 0.757 µM) | 6.25 (≈ 12.1 µM) |  |  |  |  | 
C[C@@H](O)[C@H]1C(=O)N2C(C(=O)O)=C(S[C@@H]3CN[C@H](C(=O)NCCC(N)=O)C3)[C@H](C)[C@H]12 | 0.195 (≈ 0.457 µM) | 0.049 (≈ 0.115 µM) | 0.049 (≈ 0.115 µM) | 12.5 (≈ 29.3 µM) | 0.007 (≈ 0.0164 µM) | 0.025 (≈ 0.0586 µM) | 0.025 (≈ 0.0586 µM) | 0.195 (≈ 0.457 µM) | 0.391 (≈ 0.917 µM) | 2600 |  |  |  | 
C[C@@H](O)[C@H]1C(=O)N2C(C(=O)O)=C(S[C@@H]3CN[C@H](C(=O)NCCS(=O)(=O)N(C)CCO)C3)[C@H](C)[C@H]12 | 0.391 (≈ 0.751 µM) | 0.049 (≈ 0.0941 µM) | 0.049 (≈ 0.0941 µM) | 12.5 (≈ 24 µM) | 0.013 (≈ 0.025 µM) | 0.025 (≈ 0.048 µM) | 0.025 (≈ 0.048 µM) | 0.781 (≈ 1.5 µM) | 1.56 (≈ 3 µM) |  |  |  |  | 
C[C@@H](O)[C@H]1C(=O)N2C(C(=O)O)=C(SCCNC=N)C[C@H]12 [IMIPENEM ANHYDROUS] | 0.013 (≈ 0.0434 µM) | 0.391 (≈ 1.31 µM) | 0.781 (≈ 2.61 µM) | 1.56 (≈ 5.22 µM) | 0.004 (≈ 0.0134 µM) | 0.195 (≈ 0.651 µM) | 0.195 (≈ 0.651 µM) | 0.195 (≈ 0.651 µM) | 0.781 (≈ 2.61 µM) | 10000 |  |  |  | 
CNC(=O)CCNC(=O)[C@@H]1C[C@H](SC2=C(C(=O)O)N3C(=O)[C@H]([C@@H](C)O)[C@H]3[C@H]2C)CN1 | 0.391 (≈ 0.888 µM) | 0.049 (≈ 0.111 µM) | 0.049 (≈ 0.111 µM) | 12.5 (≈ 28.4 µM) | 0.013 (≈ 0.0295 µM) | 0.025 (≈ 0.0568 µM) | 0.025 (≈ 0.0568 µM) | 0.391 (≈ 0.888 µM) | 0.781 (≈ 1.77 µM) |  |  |  |  | 
C[C@@H](O)[C@H]1C(=O)N2C(C(=O)O)=C(S[C@@H]3CN[C@H](C(=O)NCCC(=O)O)C3)[C@H](C)[C@H]12 | 1.56 (≈ 3.66 µM) | 0.098 (≈ 0.229 µM) | 0.098 (≈ 0.229 µM) | 50 (≈ 117 µM) | 0.049 (≈ 0.115 µM) | 0.049 (≈ 0.115 µM) | 0.049 (≈ 0.115 µM) | 3.12 (≈ 7.31 µM) | 6.25 (≈ 14.6 µM) |  |  |  |  | 
C[C@@H](O)[C@H]1C(=O)N2C(C(=O)O)=C(S[C@@H]3CN[C@H](C(=O)NCCC(=O)N4CCCC4)C3)[C@H](C)[C@H]12 | 0.195 (≈ 0.406 µM) | 0.049 (≈ 0.102 µM) | 0.049 (≈ 0.102 µM) | 12.5 (≈ 26 µM) | 0.007 (≈ 0.0146 µM) | 0.025 (≈ 0.052 µM) | 0.025 (≈ 0.052 µM) | 0.781 (≈ 1.63 µM) | 6.25 (≈ 13 µM) |  |  |  |  | 
C[C@@H](O)[C@H]1C(=O)N2C(C(=O)O)=C(S[C@@H]3CN[C@H](C(=O)NCCC(=O)N(C)C)C3)[C@H](C)[C@H]12 | 0.195 (≈ 0.429 µM) | 0.049 (≈ 0.108 µM) | 0.049 (≈ 0.108 µM) | 12.5 (≈ 27.5 µM) | 0.007 (≈ 0.0154 µM) | 0.025 (≈ 0.055 µM) | 0.025 (≈ 0.055 µM) | 0.391 (≈ 0.86 µM) | 1.56 (≈ 3.44 µM) |  |  |  |  | 
COC(=O)CCNC(=O)[C@@H]1C[C@H](SC2=C(C(=O)O)N3C(=O)[C@H]([C@@H](C)O)[C@H]3[C@H]2C)CN1 | 0.195 (≈ 0.442 µM) | 0.049 (≈ 0.111 µM) | 0.049 (≈ 0.111 µM) | 12.5 (≈ 28.3 µM) | 0.007 (≈ 0.0159 µM) | 0.025 (≈ 0.0566 µM) | 0.025 (≈ 0.0566 µM) | 0.195 (≈ 0.442 µM) | 1.56 (≈ 3.54 µM) |  |  |  |  | 
C[C@@H](O)[C@H]1C(=O)N2C(C(=O)O)=C(S[C@@H]3CN[C@H](C(=O)NCCS(=O)(=O)N4CCOCC4)C3)[C@H](C)[C@H]12 | 0.391 (≈ 0.734 µM) | 0.098 (≈ 0.184 µM) | 0.098 (≈ 0.184 µM) | 12.5 (≈ 23.5 µM) | 0.013 (≈ 0.0244 µM) | 0.049 (≈ 0.092 µM) | 0.049 (≈ 0.092 µM) | 1.56 (≈ 2.93 µM) | 50 (≈ 93.9 µM) |  |  |  |  | 
C[C@@H](O)[C@H]1C(=O)N2C(C(=O)O)=C(S[C@@H]3CN[C@H](C(=O)NCCC(=O)NCCO)C3)[C@H](C)[C@H]12 | 0.391 (≈ 0.831 µM) | 0.098 (≈ 0.208 µM) | 0.098 (≈ 0.208 µM) | 12.5 (≈ 26.6 µM) | 0.007 (≈ 0.0149 µM) | 0.025 (≈ 0.0531 µM) | 0.049 (≈ 0.104 µM) | 0.391 (≈ 0.831 µM) | 0.391 (≈ 0.831 µM) |  |  |  |  | 
C[C@@H](O)[C@H]1C(=O)N2C(C(=O)O)=C(S[C@@H]3CN[C@H](C(=O)N(C)C)C3)[C@H](C)[C@H]12 [MEROPENEM] | 0.098 (≈ 0.256 µM) | 0.049 (≈ 0.128 µM) | 0.025 (≈ 0.0652 µM) | 12.5 (≈ 32.6 µM) | 0.002 (≈ 0.00522 µM) | 0.025 (≈ 0.0652 µM) | 0.025 (≈ 0.0652 µM) | 0.049 (≈ 0.128 µM) | 0.195 (≈ 0.509 µM) | 3200 | 1.76 | 12.6 | 1.24 | 7.16
C[C@@H](O)[C@H]1C(=O)N2C(C(=O)O)=C(S[C@@H]3CN[C@H](C(=O)NCCS(N)(=O)=O)C3)[C@H](C)[C@H]12 | 0.098 (≈ 0.212 µM) | 0.049 (≈ 0.106 µM) | 0.025 (≈ 0.054 µM) | 6.25 (≈ 13.5 µM) | 0.004 (≈ 0.00865 µM) | 0.025 (≈ 0.054 µM) | 0.013 (≈ 0.0281 µM) | 0.195 (≈ 0.422 µM) | 0.195 (≈ 0.422 µM) | 2400 | 2.6 | < 19.8 | 0.47 | 2.31
C=CCNS(=O)(=O)CCNC(=O)[C@@H]1C[C@H](SC2=C(C(=O)O)N3C(=O)[C@H]([C@@H](C)O)[C@H]3[C@H]2C)CN1 | 0.195 (≈ 0.388 µM) | 0.049 (≈ 0.0975 µM) | 0.049 (≈ 0.0975 µM) | 6.25 (≈ 12.4 µM) | 0.007 (≈ 0.0139 µM) | 0.025 (≈ 0.0497 µM) | 0.025 (≈ 0.0497 µM) | 0.781 (≈ 1.55 µM) | 1.56 (≈ 3.11 µM) |  |  |  |  | 
C[C@@H](O)[C@H]1C(=O)N2C(C(=O)O)=C(S[C@@H]3CN[C@H](C(=O)NCCS(=O)(=O)N(C)C)C3)[C@H](C)[C@H]12 | 0.195 (≈ 0.397 µM) | 0.049 (≈ 0.0999 µM) | 0.049 (≈ 0.0999 µM) | 12.5 (≈ 25.5 µM) | 0.007 (≈ 0.0143 µM) | 0.025 (≈ 0.051 µM) | 0.025 (≈ 0.051 µM) | 0.195 (≈ 0.397 µM) | 1.56 (≈ 3.19 µM) |  |  |  |  | 
C[C@@H](O)[C@H]1C(=O)N2C(C(=O)O)=C(S[C@@H]3CN[C@H](C(=O)NCCS(=O)(=O)NCCO)C3)[C@H](C)[C@H]12 | 0.195 (≈ 0.385 µM) | 0.049 (≈ 0.0967 µM) | 0.049 (≈ 0.0967 µM) | 12.5 (≈ 24.7 µM) | 0.007 (≈ 0.0138 µM) | 0.025 (≈ 0.0493 µM) | 0.025 (≈ 0.0493 µM) | 0.391 (≈ 0.772 µM) | 0.391 (≈ 0.772 µM) |  |  |  |  | 
CNS(=O)(=O)CCNC(=O)[C@@H]1C[C@H](SC2=C(C(=O)O)N3C(=O)[C@H]([C@@H](C)O)[C@H]3[C@H]2C)CN1 | 0.195 (≈ 0.409 µM) | 0.049 (≈ 0.103 µM) | 0.025 (≈ 0.0525 µM) | 12.5 (≈ 26.2 µM) | 0.013 (≈ 0.0273 µM) | 0.025 (≈ 0.0525 µM) | 0.025 (≈ 0.0525 µM) | 0.369 (≈ 0.774 µM) | 0.391 (≈ 0.82 µM) |  |  |  |  | 
